Our source for the GI50 and TGI values is PubChem BioAssay (NCI).

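Cultured in 96-well plates, cells were exposed to test compound for 48 hours across five concentrations. GI50 is the concentration that inhibits growth by half. TGI: total growth inhibition.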 A value given as a limit tells only on which side of the number the result lay.

Holding throughout (assay): NCI-60 cell line screen, 48 h
The subject of assay [1] is U251 CNS.
Assay [2] relates to SK-OV-3 ovarian.
In assay [3] the test system is SNB-75 CNS.
Assay [4] relates to OVCAR-8 ovarian.
In assay [5] the test system is UO-31 renal.
The subject of assay [6] is SN12C renal.
Assay [7] has as its system EKVX NSCLC.
Assay [8] deals with HCT-15 colon.
Assay [9] concerns COLO 205 colon.
Assay [10] concerns RPMI-8226 leukemia.

Take `CC/C=C\C[C@@H]1C/C=C2/C(=O)C=C[C@H]2C/C=C\CCCC(=O)O1`: the GI50 in assay [1] is 0.365 µM; in assay [2] it was 2.49 µM; in [3] it was 1.18 µM; in assay [4], 0.342 µM; in assay [5], 0.929 µM; in [6] it was 0.545 µM. In addition, the GI50 in assay [7] is 1.1 µM; in assay [8] it was 0.242 µM; in [9], 0.284 µM; in [10] it was 0.331 µM. For the same compound, the TGI in [1] came out at 1.51 µM; in assay [2], 7.94 µM; in [3] it was 2.6 µM; in assay [4], 2.37 µM; in assay [5], 2.23 µM; in assay [6], 4.01 µM. For the same compound, the TGI stood at 2.44 µM in [7], 0.865 µM in assay [8], 1.05 µM in [9] and 1.33 µM in [10].
For `CC(=O)[CH-]C(=O)c1ccccc1.CC(=O)[CH-]C(=O)c1ccccc1.O=C([O-])c1ccc([O-])cc1.O=C([O-])c1ccc([O-])cc1.[Ti+4]`, the GI50 in [1] was 45 µM; in assay [2], above 100 µM; in [3] it was 29.1 µM; in assay [4], 46.5 µM; in assay [5], 23.1 µM; in assay [6], 51.3 µM. For the same compound, the GI50 in [7] was 23.9 µM; in [8], 56.6 µM; in assay [9] it was 20.6 µM; in assay [10], 20.7 µM. For the same compound, the TGI in [1] is above 100 µM; in [2], above 100 µM; in assay [3] it was above 100 µM; in assay [4] it was above 100 µM; in [5], 76.4 µM; in assay [6], above 100 µM. For the same compound, the TGI in assay [7] is 79.6 µM; in [8] it was above 100 µM; in [9] it was 40.1 µM; in assay [10] it was 62.8 µM.
In the case of `CCN(CC)CCCC(C)Nc1c(C)cnc2cc(Cl)c(C)cc12` (stereo not given), the GI50 in assay [1] is 12 µM; in assay [2], 23.2 µM; in [3], 17.8 µM; in [4], 11.4 µM; in assay [5], 17.5 µM; in [6], 11.2 µM. Moreover, the GI50 was 15 µM in assay [7], 11.7 µM in assay [8], 3.96 µM in assay [9] and 2.38 µM in assay [10]. Besides, the TGI in assay [1] is above 100 µM; in [2], above 58 µM; in assay [3], 36 µM; in assay [4], 43.5 µM; in assay [5], above 78.5 µM; in assay [6], 43.9 µM. In addition, the TGI in assay [7] is 38.7 µM; in assay [8] it was above 68 µM; in assay [9], above 38.6 µM; in [10], 9.82 µM.
For `Cc1ccc(Nc2nc3c(s2)C(=O)c2ccccc2C3=O)c(C)c1`, the TGI in [1] is 42.5 µM; in [2] it was 62.5 µM; in assay [3] it was 30.1 µM; in assay [4], 35.2 µM; in [5] it was 27.3 µM; in assay [6], 31.1 µM. For the same compound, the TGI in [7] turned out to be 33 µM; in assay [8], 41.5 µM; in assay [9], 35.2 µM; in assay [10], 45.6 µM.
Turning to `NCCCC[C@@H]1NC(=O)[C@H]2CCCN2C(=O)[C@H](Cc2ccccc2)NC(=O)[C@H](Cc2ccccc2)CNC1=O`, the GI50 in [1], in assay [2], in [3], in assay [4], in assay [5] and in assay [6] was above 100 µM throughout. In addition, the GI50 in [7], in assay [8], in [9] and in [10] was above 100 µM throughout. In addition, the TGI in assay [1], in assay [2], in [3], in [4], in assay [5] and in assay [6] was above 100 µM each time. Moreover, the TGI in assay [7], in assay [8], in [9] and in assay [10] was above 100 µM in each case.
For the compound `CC1=C2C(=O)O[C@@H](c3ccoc3)[C@]2(C)CCC1`, the TGI in assay [1], in [2], in assay [3], in assay [4], in assay [5] and in [7] was above 100 µM in each case. The TGI in assay [8], in [9] and in assay [10] was above 100 µM in each case.
Take `CC(=O)OC1=NN=C2COC(c3ccccc3OC(C)=O)=NN2C1`: the TGI in [1], in assay [2], in assay [3], in assay [5], in [6] and in assay [7] was above 50 µM each time. Besides, the TGI in [8], in assay [9] and in assay [10] was above 50 µM in each case.
Turning to `C=CCCCCCCCCC(=O)NS(=O)(=O)c1ccccc1`, the TGI in assay [1], in assay [2], in [3], in assay [4], in assay [5] and in [6] was above 100 µM throughout. In addition, the TGI in [7], in assay [9] and in assay [10] was above 100 µM throughout.
As for `COc1ccc(N2C(=O)C3c4[nH]c5ccc(C)cc5c4C4CCC(C(C)(C)C)CC4C3C2=O)cc1` (stereo not given), the TGI in assay [2] is 29.5 µM; in assay [3], 7.7 µM; in assay [4], 25.1 µM; in [5], 40.3 µM; in [6], above 100 µM; in assay [7] it was above 100 µM. Moreover, the TGI in assay [8] is above 100 µM; in assay [9], above 100 µM; in assay [10], 82.1 µM.
Regarding `COc1cc2oc(-c3ccc(O)cc3)cc(=O)c2c(OC)c1OC`, the TGI in assay [1], in assay [3], in assay [4], in [5], in assay [6] and in [7] was above 100 µM in each case. In addition, the TGI in assay [8], in assay [9] and in assay [10] was above 100 µM in each case.
